Columns and labels:
cell cultures = details: substrate for FPGS; cited from earlier work
mouse enzyme GARFT = mouse enzyme GARFT (Mus musculus, UniProt Q64737); details: read-out: Ki mouse GARFT; cited from earlier work
MTHFS = test: Inhibition of MTHFS-catalyzed conversion of 5-formylTHF to 5,10-methenylTHF (spectrophotometric assay); format: biochemical
Experimental: Tissue samples were sonicated four times for 15 s in a buffer containing 100 mM HEPES pH 7.0, 100 mM sodium chloride, 5 mM EDTA, 1% Tween-20. The solution was clarified by centrifugation. MTHFS activity was determined using a spectrophotometer by monitoring the appearance of 5,10-methenyltetrahydrofolate, which has an absorbance maximum at 355 nm. For a typical assay, 50 μL of clarified tissue supernatant was added to a quartz cuvette containing 100 μM (6S)-5-formylTHF, 1 mM Mg-ATP and 100 mM MES, pH 6.0 and the rate of 5,10-methenylTHF formation was quantified. Activity measurements were normalized to total protein that was quantified using the Lowry-Bensadoun method (Bensadoun et al., “Assay of Proteins in the Presence of Interfering Materials,” Anal Biochem 70:241-250 (1976), which is hereby incorporated by reference in its entirety).
The UV spectrum of purified rabbit liver MTHFS differs from the spectrum of recombinant mouse MTHFS (FIG. 4). Therefore, it was investigated whether rabbit liver MTHFS could be reconstituted with NADA resulting in a change in the UV spectrum of the protein. […]

MCF-7 cells [1] = test: Folate turnover in cultured cells (pulse-chase); format: cell-based, human; details: 20 μM in chase medium
Experimental: Cell monolayers at 75% confluence were washed with PBS, then labeled for 12 h in defined αMEM lacking folate and glycine and supplemented with 25 nM (6S)-[^3H]5-formylTHF. For the chase, cell monolayers were washed with 10 ml of PBS, trypsinized, and pelleted by centrifugation. The cells were seeded in triplicate (1×10^6 cells) into 100 mm culture plates containing 10 ml of defined αMEM supplemented with 2 μM folic acid. Catecholamines (20 μM dopamine, NADA, and L-dopa) were prepared freshly and added to the chase media prior to the addition of labeled cells. Cells were harvested at defined time points, the medium was removed and the tritium in the medium was quantified. The cell monolayers were washed with PBS and lysed with 0.2 M ammonium hydroxide. Tritium remaining in the cells was quantified using a Beckman LS 8100 liquid scintillation counter.
Catecholamine availability may be rate limiting for MTHFS-catalyzed folate catabolism in MCF-7 cells. The effects of exogenous catecholamines on folate turnover rates were determined using pulse-chase analyses in MCF-7 cells. Folate turnover in MCF-7 cells labeled with [^3H]-5-formylTHF is biphasic, with an initial rapid phase of turnover followed by a slower phase (Anguera et al., J. Biol. Chem. 278:29856-29862 (2003), which is hereby incorporated by reference in its entirety). Addition of 20 μM NADA to the chase medium increased the magnitude of the rapid phase of folate turnover by 12% compared to untreated cells (FIG. 11A). […] To distinguish between these two mechanisms, 20 μM dopamine and L-dopa were added to the chase medium. Dopamine is the precursor of NADA, and both dopamine and L-dopa can function as oxidants following oxidation of their diphenolic ring generating dopamine-quinone or dopa-quinone (Rescigno et al., Biochemical Pharmacology 56:1089-1096 (1998); Graham, D. G. Mol. Pharmacol. 14:633-643 (1978), which are hereby incorporated by reference in their entirety). […] The addition of dopamine to the culture medium increased the magnitude of the rapid phase of folate turnover by only 4% relative to untreated cells (FIG. 11A). The minor effect of dopamine on folate turnover may reflect N-acetyltransferase-mediated dopamine acetylation that generating NADA. […] In summary, the pulse chase experiments indicate that NADA may be limiting for in vivo folate catabolism, and NADA may function specifically as the electron acceptor molecule for MTHFS-mediated folate catabolism.

MCF-7 cells [2] = test: Radiolabeled folate accumulation in cultured cells treated with catecholamines; format: cell-based, human; details: 12 h, 25 nM (6S)-[^3H]-5-formylTHF, 0-150 μM catecholamine
Experimental: (§1) Cell monolayers at 70% confluence in 6-well plates were labeled for 12 h in defined αMEM lacking folate and glycine, but supplemented with 25 nM (6S)-[^3H]5-formylTHF and 0, 25 μM, 50 μM, 75 μM, 100 μM, or 150 μM NADA, dopamine, or epinephrine. Cells were harvested by washing with 5 mL PBS, trypsinized, and pelleted by centrifugation and viable cells (determined by their ability to exclude trypan blue) were quantified. The cell pellets were lysed with 0.2 M ammonium hydroxide, and the intracellular tritium was quantified using a Beckman LS 8100 liquid scintillation counter.
Because the addition of NADA to the chase medium increased folate turnover rates in MCF-7 cells, the effects of various catecholamines on [^3H]folate accumulation was investigated. Cells were cultured for 12 h in defined αMEM medium containing 25 nM (6S)-[^3H]-5-formylTHF and various concentrations of NADA, dopamine, and epinephrine, and cellular [^3H]folate content was determined.

MCF-7 cells [3] = test: Cell viability (trypan blue) after catecholamine treatment; format: cell-based, human; details: 12 h, various concentrations
Experimental: FIG. 12A-B show the effect of NADA, dopamine, and epinephrine on folate accumulation and cell viability in MCF-7 cells. MCF-7 cells were incubated with 25.0 nM (6S)-[^3H]5-formylTHF and various concentrations of NADA, dopamine, and epinephrine for 12 h, then viable cells were quantified using trypan blue staining. […] All values were normalized to cpm for untreated cells, and untreated cells were given an arbitrary value of 100%. […] Cell viability is expressed as the percent of viable cells divided by the total number of cells. Total [^3H]folate compounds were quantified in cell lysates by liquid scintillation. All values represent quadruplicate measures, and error bars are standard deviations of the mean.
as §1

[4] = target: T1, recombinant mouse MTHFS protein (Mus musculus, UniProt Q9D110); details: equilibrium binding
T1 sequence (Q9D110 1-203): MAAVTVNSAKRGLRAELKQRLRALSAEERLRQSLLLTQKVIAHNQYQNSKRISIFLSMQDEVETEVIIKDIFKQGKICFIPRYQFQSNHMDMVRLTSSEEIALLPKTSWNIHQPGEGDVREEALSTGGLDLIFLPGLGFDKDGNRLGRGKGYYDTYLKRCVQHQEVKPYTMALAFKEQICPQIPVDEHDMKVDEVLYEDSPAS

Sequence of mouse enzyme GARFT (Q64737 whole entry): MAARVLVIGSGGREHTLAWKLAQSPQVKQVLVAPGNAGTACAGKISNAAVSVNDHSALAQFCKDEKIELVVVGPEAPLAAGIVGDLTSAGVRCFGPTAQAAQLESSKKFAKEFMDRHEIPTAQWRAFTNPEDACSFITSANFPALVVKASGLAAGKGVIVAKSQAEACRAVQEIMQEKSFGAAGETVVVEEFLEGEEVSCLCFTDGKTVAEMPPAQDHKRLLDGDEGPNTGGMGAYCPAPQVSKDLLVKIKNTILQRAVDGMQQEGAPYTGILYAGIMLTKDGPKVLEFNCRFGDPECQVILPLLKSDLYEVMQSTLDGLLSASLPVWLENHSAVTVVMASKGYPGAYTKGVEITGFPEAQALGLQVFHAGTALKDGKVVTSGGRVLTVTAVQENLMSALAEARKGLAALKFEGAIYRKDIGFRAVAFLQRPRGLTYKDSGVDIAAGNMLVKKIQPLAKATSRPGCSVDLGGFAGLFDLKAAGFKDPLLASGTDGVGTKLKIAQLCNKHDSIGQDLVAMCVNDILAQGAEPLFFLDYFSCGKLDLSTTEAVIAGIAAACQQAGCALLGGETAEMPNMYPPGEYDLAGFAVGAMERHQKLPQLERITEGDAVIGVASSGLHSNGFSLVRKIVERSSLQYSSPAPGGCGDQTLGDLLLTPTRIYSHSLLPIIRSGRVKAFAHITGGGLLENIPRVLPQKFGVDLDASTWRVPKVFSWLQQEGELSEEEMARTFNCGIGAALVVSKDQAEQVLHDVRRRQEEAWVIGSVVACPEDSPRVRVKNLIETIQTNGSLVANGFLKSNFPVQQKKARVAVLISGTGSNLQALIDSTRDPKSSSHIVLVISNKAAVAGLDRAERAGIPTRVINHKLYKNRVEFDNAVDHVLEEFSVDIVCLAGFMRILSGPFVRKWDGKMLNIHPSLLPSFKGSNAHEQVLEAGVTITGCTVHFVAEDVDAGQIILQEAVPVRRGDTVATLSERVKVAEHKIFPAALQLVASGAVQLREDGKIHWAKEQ

In the case of Nc1nc(N)c(CCCC(C=O)c2ccc(C(=O)N[C@@H](CCC(=O)O)C(=O)O)cc2)c(=O)[nH]1 (stereo partly shown) [10-formyl-DDACTHF, 10-formyl-5,10-dideaza-acyclicTHF], the “accumulation in cell cultures” value (cell cultures) is listed as “over 100 fold”.
For Nc1nc2c(c(=O)[nH]1)C[C@@H](CCc1ccc(C(=O)N[C@@H](CCC(=O)O)C(=O)O)cc1)CN2 [DDATHF, 5,10-dideazatetrahydrofolate], the Ki (mouse enzyme GARFT) is given as 6 nM.
In the case of CC(=O)NCCc1ccc(O)c(O)c1 [NADA, N-acetyldopamine], the “inhibition of MTHFS-catalyzed conversion of 5-formylTHF to 5,10-methenylTHF” value (MTHFS) is reported as “did not inhibit”, the “increase in magnitude of the rapid phase of folate turnover compared to untreated cells” value (MCF-7 cells [1]) is reported as 12% and the “slow phase of folate turnover relative to untreated cells” value (MCF-7 cells [1]) is reported as “did not change”. The “[^3H]folate accumulation” value (MCF-7 cells [2]) was “decreased [^3H]folate accumulation in a dose-dependent manner” and the cell viability (MCF-7 cells [3]) was “NADA-induced cell death”.
With NCCc1ccc(O)c(O)c1 [dopamine] the “increase in magnitude of the rapid phase of folate turnover compared to untreated cells” value (MCF-7 cells [1]) was 4%, the “[^3H]folate accumulation” value (MCF-7 cells [2]) was “Neither the addition of dopamine nor epinephrine to culture media impaired [^3H]folate accumulation” and the “binding to recombinant mouse MTHFS protein” value [4] was “neither dopamine nor oxidized dopamine bind”.
